Data from publication PMC7777204, “Locking mixed-lineage kinase domain-like protein in its auto-inhibited state prevents necroptosis” (Proceedings of the National Academy of Sciences of the …, 2020).

Target: T1, MLKL executioner domain (Homo sapiens, UniProt Q8NB16)
T1 construct: 80 µM MLKL N-terminal executioner domain (residues 1 to 154) was used; GST (thrombin cleavage site) (cleaved yes)
T1 sequence (Q8NB16 1-154): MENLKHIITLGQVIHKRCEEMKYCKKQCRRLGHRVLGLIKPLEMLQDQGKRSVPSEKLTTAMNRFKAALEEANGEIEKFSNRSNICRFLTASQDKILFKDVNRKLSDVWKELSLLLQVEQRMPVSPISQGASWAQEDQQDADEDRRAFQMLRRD
Test: NMR diffusion experiments (hydrodynamic radius)
Assay type: biochemical
Method: To further characterize the oligomerized MLKL executioner domain, NMR diffusion experiments were conducted directly succeeding the end of the real-time NMR series (orange dots in Fig. 5A). This was compared with a fresh sample of unliganded MLKL executioner domain (black dots in Fig. 5A).
In a next step, we conducted NMR diffusion experiments with NM concentrations above and below the critical micelle concentration of 6 mM, to find out if the increased hydrodynamic radius of the MLKL executioner domain is dependent on the presence of micelles. […] The presence of 500 µM IP6 and 500 µM Cpd 3 had no influence on the hydrodynamic radius of NM (SI Appendix, Fig. S12). […] Therefore, the oligomerization depends on micelles, and the observed species is most likely a micelle-integrated oligomeric MLKL executioner domain. […]
NMR diffusion experiments were recorded as pseudo two-dimensional experiments with varying gradient strength either as a ^15N-filtered NMR experiment ([42]) (recorded with ^15N-labeled protein). […]
where d is the diffusion constant. […] The hydrodynamic radius was calculated by using the determined diffusion constants of the component of interest (d) and dioxane (ddioxane) and the known hydrodynamic radius of dioxan (2.12 Å) ([23]) using Eq. 4. rH=2.12Å⋅ddioxane/d, [4] […]

Cn1c(=O)c2c(nc(S(C)(=O)=O)n2C)n(CC#Cc2cccc(O)c2)c1=O [Cpd 3]
Oligomeric state of the MLKL executioner domain (12 mM NM + 500 µM IP6 + 500 µM Cpd 3, after 2 d of incubation, 57 Å without compound): completely monomeric | Hydrodynamic radius of the MLKL executioner domain (complex with 500 µM Cpd 3, 12 mM NM + 50 µM IP6, after time course, 60 Å without Cpd 3, 19 Å unliganded): 30 Å
